Consider 22 compounds from article PMC9822041 (Molecules, 2022).

One data set addresses hCLK1 (Homo sapiens, UniProt P49759). The data set can be described thus: CLK1 Human CMGC Kinase Enzymatic Radiometric Assay [Km ATP]. Type of data set: biochemical.
The target of the next data set is hDYRK1A (Homo sapiens, UniProt Q13627). In words: DYRK1A Human CMGC Kinase Enzymatic Radiometric Assay [Km ATP]. Type of data set: biochemical.
For the next data set, the system named is CLK1. More on the design: method as in PMID 20981014, PMID 15010457. To be noted: cited from earlier work.
In the next data set the test system is DYRK1A. To be noted: cited from earlier work.
The nature of a further data set: in vitro. To be noted: PAMPA, pH 7.4.
Data set [1] in a line: In vitro stability/oxidation of 1p to 2p in PBS, NAD+, H2O2 and riboflavin solutions (HPLC-UV). Type of data set: physicochemical. To be noted: 25 μM 1p.
A short description of data set [2]: In vitro DPPH radical scavenging assay. To be noted: methanol, 37 °C, 40 min, absorbance at 517 nm. As to the method: Finally, the aptitude of 1p to act as a free radical scavenger was assessed using the rapid, inexpensive and widely used DPPH^• (2,2-diphenyl-1-picrylhydrazyl) scavenging method. Dark purple DPPH^• is a stable free radical that can accept an electron or hydrogen to become a stable diamagnetic molecule with the loss of violet color. […] Thus, this novel class of hDYRK1A/hCLK1 inhibitors are all the more interesting that they may also potentially display an additional antioxidant activity to combat oxidative stress in AD.
Figure 1. In vitro stability of 1p in various non-oxidazing and oxidazing media.
III – In vitro DPPH radical scavenging assay
DPPH radical scavenging activity was determined according to the method described by Blois.5 0.5 mL of 0.1 mM DPPH radical solution in methanol was mixed with 1.5 mL of various concentrations in methanol of 1p. The mixture was then thoroughly vortexed for 5s and each antioxidant-DPPH radical reaction mixture is kept in the test tubes in the dark at 37 °C for 40 min (time point by which all reactions should have reached steady state) and transferred to a cuvette for absorbance measurement at 517 nm. For the baseline control, 1.5 mL of methanol was used. […] Percentage of inhibition was calculated using the equation [(A0−A1)/A0] × 100 where A0 was the absorbance of the control and A1 was the absorbance in the presence of the compound. […]
On the technique in general: The DPPH test is a chemical assay of radical scavenging.

Data set [3] in a line: Solubility of 1p in PBS (HPLC). The data set is classed as physicochemical. To be noted: aqueous buffer, kinetic from dmso stock; PBS pH 7.4, 24 h at 20 °C; read-out: Experimental solubility in PBS.
[4] abbreviates: radiometric assay, Km ATP, read-out: IC50 hCLK1.
Where [5] appears, read: radiometric assay, Km ATP, read-out: IC50 hDYRK1A.
[6] abbreviates: quinolinium salt and quinoline intermediates, read-out: IC50 hCLK1 (synthetic intermediates).
Where [7] appears, read: quinolinium salt and quinoline intermediates, read-out: IC50 hDYRK1A (synthetic intermediates).
Setting [8] is: compared with N-methyl dihydroquinoline 1h.

SMILES strings stand for the structures. Where “and” joins values, the source holds several entries; their conditions need not be identical. Equal values may be shown once. Read-outs that look alike come from different tables or passages of the source. Bounds are passed on as bounds.

hCLK1, sequence (P49759 whole entry): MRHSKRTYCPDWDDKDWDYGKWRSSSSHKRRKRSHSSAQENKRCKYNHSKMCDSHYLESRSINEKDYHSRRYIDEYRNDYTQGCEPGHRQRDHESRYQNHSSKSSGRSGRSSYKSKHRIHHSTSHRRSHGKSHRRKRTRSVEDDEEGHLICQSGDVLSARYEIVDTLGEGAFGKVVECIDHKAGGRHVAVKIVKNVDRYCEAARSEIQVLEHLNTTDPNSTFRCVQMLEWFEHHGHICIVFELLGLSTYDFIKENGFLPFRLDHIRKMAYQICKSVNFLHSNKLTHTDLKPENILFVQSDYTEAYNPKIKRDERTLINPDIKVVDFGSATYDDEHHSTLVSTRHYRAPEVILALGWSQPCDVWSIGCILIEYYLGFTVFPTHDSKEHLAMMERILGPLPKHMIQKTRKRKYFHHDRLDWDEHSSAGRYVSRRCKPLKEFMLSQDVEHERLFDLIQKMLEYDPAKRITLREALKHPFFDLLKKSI

`COC(=O)C1=CN(C)c2cc(OC)ccc2C1` [Compound 1j, Methyl 7-methoxy-1-methyl-1,4-dihydroquinoline-3-carboxylate]: the melting point (in general, the temperature, or range, at which the solid turns liquid) fell in the range of 95 to 96 °C. At hCLK1 (setting [4]), the half-inhibitory concentration (IC50) (in general, the concentration needed to halve the response being measured) was 1.46 ± 0.253 µM. Further, at hDYRK1A (setting [5]), the IC50 is above 10 µM.

For `CC(=O)C1=CN(C)c2cc(N(C)C)ccc2C1` [Compound 1c, 1-(7-(Dimethylamino)-1-methyl-1,4-dihydroquinolin-3-yl)ethanone], the melting point was 126 to 127 °C. Moreover, the IC50 on hCLK1 (setting [4]) was above 10 µM. For the same compound, the IC50 at hDYRK1A (setting [5]) is above 10 µM.

As to `CCN1/C(=C/C(C)=O)Sc2ccc(OC)cc21` [TG003], the values for the IC50 in the data set on CLK1 and with DYRK1A were […] and […], respectively.

The compound `CCC[n+]1cc(C(C)=O)cc2ccc(OC)cc21.[Br-]` came in with a melting point of 183 to 184 °C.

In turn, `COc1cc2c(cc1OC)N(C)C=C(C(C)=O)C2` [Compound 1f, 1-(6,7-Dimethoxy-1-methyl-1,4-dihydroquinolin-3-yl)ethanone] displayed a melting point of 235 to 236 °C. Besides, the IC50 on hCLK1 (setting [4]) is above 10 µM. Moreover, on hDYRK1A (setting [5]), the IC50 is above 10 µM.

In turn, `CC(=O)C1=CN(C)c2cc3c(cc2C1)OCO3` [Compound 1g, 1-(5-Methyl-5,8-dihydro-[1,3]dioxolo[4,5-g]quinolin-7-yl)ethanone] returned a melting point of 152 to 153 °C. The IC50 on hCLK1 (setting [4]) is above 10 µM. The IC50 on hDYRK1A (setting [5]) is above 10 µM.

In turn, `CCOC(=O)C1=CN(C)c2cc(OC)ccc2C1` [Compound 1k, Ethyl 7-methoxy-1-methyl-1,4-dihydroquinoline-3-carboxylate] gave a melting point of 93 to 94 °C. Besides, the half-inhibitory concentration (IC50) at hCLK1 (setting [4]) is 3.16 ± 0.525 µM. Also, the IC50 at hDYRK1A (setting [5]) is above 10 µM.

Turning to `CC(=O)C1=CN(C)c2ccccc2C1` [Compound 1a, 1-(1-Methyl-1,4-dihydroquinolin-3-yl)ethanone], the IC50 at hCLK1 (setting [4]) and at hDYRK1A (setting [5]) was above 10 µM in each case.

`COc1ccc2cc(C(C)=O)cnc2c1` [Compound 6h, 3-Acetyl-7-methoxyquinoline] yielded a melting point of 129 to 130 °C. For the same compound, the IC50 on hCLK1 (setting [6]) was above 10 µM. Also, the IC50 on hDYRK1A (setting [7]) is above 10 µM.

`COc1ccc2c(c1)N(CCc1ccccc1)C=C(C(C)=O)C2` [Compound 1o, 1-(7-Methoxy-1-phenethyl-1,4-dihydroquinolin-3-yl)ethanone]: the melting point lay in the range of 92 to 93 °C. For the same compound, the IC50 at hCLK1 (setting [4]) came out at 0.122 ± 0.012 µM. The IC50 on hDYRK1A (setting [5]) was 1.11 ± 0.203 µM.

For the compound `CCCN1C=C(C(C)=O)Cc2ccc(OC)cc21` [Compound 1p, 1-(7-Methoxy-1-propyl-1,4-dihydroquinolin-3-yl)ethanone], the melting point was 98 to 99 °C. In addition, in the data set “in vitro”, the Papp (as a rule, a coefficient for how fast a substance crosses the barrier) at 4 h, 100 µM worked out at 20 ± 0.9 ×10⁻⁶ cm/s. Further, in [1] (0.1% H2O2 in PBS, after 3.5 h), the “% formed 2p after incubation at 37 °C” value came out at 13%. The “% formed 2p after incubation at 37 °C” value in data set [1] (0.1% H2O2 in PBS, after 24 h) was 53%. Besides, the “% formed 2p after incubation at 37 °C” value in [1] (0.1% riboflavin in PBS, after 3.5 h (in less than 3.5 h)) is on record as 100%. Besides, the “% formed 2p after incubation at 37 °C” value in data set [1] (0.2% NAD+ in PBS, after 3.5 h) amounted to 5%. Also, the “% formed 2p after incubation at 37 °C” value in data set [1] (0.2% NAD+ in PBS, after 24 h) turned out to be 16%. In addition, the “% formed 2p after incubation at 37 °C” value in data set [1] (2% NAD+ in PBS, after 3.5 h) was found to be 24%. In addition, the “% formed 2p after incubation at 37 °C” value in data set [1] (2% NAD+ in PBS, after 24 h) was 77%. Further, the “% formed 2p after incubation at 37 °C” value in data set [1] (PBS pH 7.4, after 3.5 h) amounted to 3%. In addition, the “% formed 2p after incubation at 37 °C” value in data set [1] (PBS pH 7.4, after 24 h) came out at 8%. Moreover, at hCLK1 (setting [8]), the “fold more potent than 1h toward hCLK1” value was 8 fold. On hCLK1 (setting [4]), the half-inhibitory concentration (IC50) worked out at 0.047 ± 0.013 µM. Moreover, the EC50 (usually the midpoint of the concentration-response curve) in [2] came to 128 µM. In addition, at hDYRK1A (setting [8]), the “fold more potent than 1h toward hDYRK1A” value is recorded as 2.5 fold. The IC50 on hDYRK1A (setting [5]) was determined as 0.153 ± 0.044 µM. Further, the solubility (as a rule, the dissolved amount per volume that the medium holds) at 24 h in [3] is 600 µM and 147 µg/mL.

`CCN1/C(=C/C(C)=O)Sc2ccc(OC(C)=O)cc21` [ProINDY]: the DYRK1A % inhibition in the data set on DYRK1A (at 10 μM) is reported as 26.1%.

In the case of `COc1ccc2c(c1)N(Cc1ccccc1)C=C(C(C)=O)C2` [Compound 1n, 1-(1-Benzyl-7-methoxy-1,4-dihydroquinolin-3-yl)ethanone], the melting point was 129 to 130 °C. For the same compound, the IC50 at hCLK1 (setting [4]) came to 0.595 ± 0.063 µM. For the same compound, at hDYRK1A (setting [5]), the IC50 was 3.02 ± 0.15 µM.

For the compound `COc1ccc2c(c1)N(C)C=C(C#N)C2` [Compound 1i, 7-Methoxy-1-methyl-1,4-dihydroquinoline-3-carbonitrile], the melting point lay in the range of 127 to 128 °C. In addition, the IC50 at hCLK1 (setting [4]) was above 10 µM. Further, the IC50 on hDYRK1A (setting [5]) was above 10 µM.

As to `COc1ccc2c(c1)N(C)C=C(C(C)=O)C2` [Compound 1h, 1-(7-Methoxy-1-methyl-1,4-dihydroquinolin-3-yl)ethanone], the melting point fell in the range of 99 to 100 °C. Also, the IC50 at hCLK1 (setting [4]) was determined as 0.377 ± 0.158 µM. Further, the half-inhibitory concentration (IC50) on hDYRK1A (setting [5]) amounted to 0.385 ± 0.13 µM.

For `COc1ccc2cc(C(C)=O)c[n+](C)c2c1.[I-]` [Compound 2h, 3-Acetyl-7-methoxy-1-methylquinolin-1-ium iodide], the melting point is 223 to 224 °C. The IC50 on hCLK1 (setting [6]) was above 10 µM. Further, at hDYRK1A (setting [7]), the 50% inhibitory concentration (IC50) was above 10 µM.

Regarding `COc1ccc2c(c1)N(C)C=C(C(=O)N(C)OC)C2` [Compound 1m, N,7-Dimethoxy-N,1-dimethyl-1,4-dihydroquinoline-3-carboxamide], the IC50 at hCLK1 (setting [4]) and on hDYRK1A (setting [5]) was above 10 µM in each case.

`CC(=O)C1=CN(C)c2ccc(Cl)cc2C1` [Compound 1e, 1-(6-Chloro-1-methyl-1,4-dihydroquinolin-3-yl)ethanone] came in with a melting point of 124 to 125 °C. In addition, on hCLK1 (setting [4]), the IC50 is above 10 µM. Besides, the IC50 on hDYRK1A (setting [5]) was above 10 µM.

In turn, `COc1ccc2c(c1)N(C)C=C(C(=O)N(C)C)C2` [Compound 1l, 7-Methoxy-N,N,1-trimethyl-1,4-dihydroquinoline-3-carboxamide] gave a melting point of 219 to 220 °C. Also, the IC50 at hCLK1 (setting [4]) is above 10 µM. Besides, the IC50 at hDYRK1A (setting [5]) is above 10 µM.

For `CCN1/C(=C/C(C)=O)Sc2ccc(O)cc21` [INDY, (Z)-1-(3-Ethyl-5-hydroxy-2(3H)-benzothiazolylidene)-2-propanone], the CLK1 % inhibition with CLK1 (at 10 μM) is reported as 99%.

On to `CC(=O)C1=CN(C)c2cc(Br)ccc2C1` [Compound 1d, 1-(7-Bromo-1-methyl-1,4-dihydroquinolin-3-yl)ethanone], for which the melting point fell in the range of 179 to 180 °C. Further, at hCLK1 (setting [4]), the IC50 is above 10 µM. The IC50 on hDYRK1A (setting [5]) was above 10 µM.

On to `CC(=O)C1=CN(C)c2cc(C(F)(F)F)ccc2C1` [Compound 1b, 1-(1-Methyl-7-(trifluoromethyl)-1,4-dihydroquinolin-3-yl)ethanone], for which the melting point lay within 141 to 142 °C. Also, the IC50 at hCLK1 (setting [4]) is above 10 µM. Moreover, on hDYRK1A (setting [5]), the IC50 was above 10 µM.
